According to patent US10689363B2 (Merck Patent GmbH, priority 2017, dated 2020):
Where two headings read alike, the source gives them in different places.

Tests used:
[1] = Water Vapour Sorption isotherm (25° C., DVS-Intrinsic), hygroscopicity acc. to Ph. Eur. 5.11.; type: physicochemical; conditions: for water uptake levels: 25° C.
Method: (§1) (based on multiple measurements on different samples of form A2). […] DSC scan of form A2 was acquired on a Mettler-Toledo DSC 821 with a heating rate of 50 K/min, using nitrogen purge gas at 50 mL/min. TGA scan of form A2 was acquired on a Mettler-Toledo TGA 851 with a heating rate of 5 K/min, using nitrogen purge gas at 50 mL/min. […] Eur. Criteria (section 5.11.). Water Vapour Sorption isotherm was acquired on a DVS-Intrinsic system from SMS.
(based on multiple measurements on different samples of form NF5). […] Eur. Criteria (section 5.11.). […] Water Vapour Sorption isotherm was acquired on a DVS-Intrinsic system from SMS.
(based on multiple measurements on one sample of form NF6). […] Eur. Criteria (section 5.11.). […] Water Vapour Sorption isotherm was acquired on a DVS-Intrinsic system from SMS.
Eur. Criteria (section 5.11.). […] Water Vapour Sorption isotherm was acquired on a DVS-Intrinsic system from SMS.
as §1, with “Other physical properties of” for “(based on multiple measurements on different samples of”, “form Fumarate-NF1 include the following: ^1H-NMR spectroscopic data reveal a API:Fumarate molar ratio of 1:1.” for “form A2).”, “form Fumarate-NF1” for “form A2”, “of 5” for “of 50”, “5.11.). […]” for “5.11.).”
Other physical properties of form Maleate-NF1 include the following: ^1H-NMR spectroscopic data reveal a API:Maleate molar ratio of 1:1. […] DSC scan of form Maleate-NF1 was acquired on a Mettler-Toledo DSC 821 with a heating rate of 5 K/min, using nitrogen purge gas at 50 mL/min. TGA scan of form Maleate-NF1 was acquired on a Mettler-Toledo TGA 851 with a heating rate of 5 K/min, using nitrogen purge gas at 50 mL/min. […] Form Maleate-NF1 can be classified as non-hygroscopic according to Ph. Eur. Criteria (section 5.11.). […] Water Vapour Sorption isotherm was acquired on a DVS-Intrinsic system from SMS.
Other physical properties of form Citrate-NF1 include the following: ^1H-NMR spectroscopic data reveal a API:Citrate molar ratio of 1:1. […] DSC scan of form Citrate-NF1 was acquired on a Mettler-Toledo DSC 821 with a heating rate of 5 K/min, using nitrogen purge gas at 50 mL/min. TGA scan of form Citrate-NF1 was acquired on a Mettler-Toledo TGA 851 with a heating rate of 5 K/min, using nitrogen purge gas at 50 mL/min. […] Eur. Criteria (section 5.11.). […] Water Vapour Sorption isotherm was acquired on a DVS-Intrinsic system from SMS.
(based on multiple measurements on different samples of form A1). […] DSC scan of form A1 was acquired on a Mettler-Toledo DSC 821 with a heating rate of 50 K/min, using nitrogen purge gas at 50 mL/min. TGA scan of form A1 was acquired on a Mettler-Toledo TGA 851 with a heating rate of 5 K/min, using nitrogen purge gas at 50 mL/min. […] Eur. Criteria (section 5.11.). […] Water Vapour Sorption isotherm was acquired on a DVS-Intrinsic system from SMS. […] Dissolution level of form A1 in Fasted-State Simulated Intestinal Fluid [FaSSIF, pH 6.5] at 37° C. was determined to be approx. 36 μg/mL (after 2 h), and dissolution level of form A1 in Fed-State Simulated Intestinal Fluid [FeSSIF, pH 5.0] at 37° C. was determined to be approx. 214 μg/mL (after 2 h), respectively (see example 11).
All forms were characterized according to standard methods which are found in e.g. Rolf Hilfiker, ‘Polymorphism in the Pharmaceutical Industry’. Wiley-VCH. Weinheim 2006 (Chapter 6: X-Ray Diffraction. Chapter 6: Vibrational Spectroscopy. Chapter 3: Thermal Analysis, Chapter 9: Water Vapour Sorption, and references therein); and H. G. Brittain, ‘Polymorphism in Pharmaceutical Solids. Vol. 95. Marcel Dekker Inc., New York 1999 (Chapter 6 and references therein).

[2] = pH 6.5
[3] = Thermodynamic solubility (24 h, 37° C.) in FaSSIF medium or USP Phosphate buffer; type: physicochemical; conditions: 24 h; for Thermodynamic solubility FaSSIF pH 6.5: FaSSIF pH 6.5, 37° C.; for Thermodynamic solubility PBS buffer 7.4: USP Phosphate buffer pH 7.4, 37° C.
[4] = Mini-dissolution in FaSSIF / FeSSIF medium at 37° C.; type: physicochemical; conditions: for Dissolution levels in FaSSIF pH 6.5: FaSSIF pH 6.5, 37° C.; for Dissolution levels in FeSSIF pH 5.0: FeSSIF pH 5.0, 37° C.
Method: All dispersions were agitated at 37° C. for up to 2 hours. At defined time intervals (30 min. 60 min, 120 min), sample aliquots of homogeneous dispersions were withdrawn by a syringe, and filtrated via syringe filter adapters (PTFE, 0.45 μm).

[5] = relative humidity range 0-80% rh
[6] = relative humidity range 90-98% rh

Structure (SMILES)	hygroscopicity classification according to Ph. Eur. Criteria (section 5.11.) [1]	hygroscopicity classification according to Ph. Eur. Criteria (section 5.11.) ([1]; listed as NF6)	water uptake levels [1, 5] [wt %]	water uptake levels [1, 6] [wt %]	kinetic solubility levels (4 h), factor higher vs form A1 [2]	hygroscopicity classification according to Ph. Eur. Criteria (section 5.11.) ([1]; listed as NF5)	water uptake levels ([1]; relative humidity level of 98% rh) [wt %]	water uptake levels ([1]; relative humidity range 0-90% rh) [wt %]	Thermodynamic solubility FaSSIF pH 6.5 [3]	Thermodynamic solubility FaSSIF pH 6.5 ([3]; listed as Free base form A1) [μg/mL]	Thermodynamic solubility PBS buffer 7.4 [3]	Thermodynamic solubility PBS buffer 7.4 ([3]; listed as Free base form A1) [µg/mL]	Dissolution levels in FaSSIF pH 6.5 ([4]; 30 min) [μg/mL]	Dissolution levels in FaSSIF pH 6.5 ([4]; 60 min) [μg/mL]	Dissolution levels in FaSSIF pH 6.5 ([4]; 120 min (2 h))	Dissolution levels in FaSSIF pH 6.5 ([4]; 120 min (2 h), listed as Free base form Al) [μg/mL]	Dissolution levels in FeSSIF pH 5.0 ([4]; 30 min) [μg/mL]	Dissolution levels in FeSSIF pH 5.0 ([4]; 60 min) [μg/mL]	Dissolution levels in FeSSIF pH 5.0 ([4]; 120 min (2 h))	Dissolution levels in FeSSIF pH 5.0 ([4]; 120 min (2 h), listed as Free base form A1) [μg/mL]
C=CC(=O)N1CCC(CNc2ncnc(N)c2-c2ccc(Oc3ccccc3)cc2)CC1 [form NF6, 1-(4-{[6-Amino-5-(4-phenoxy-phenyl)-pyrimidin-4-ylamino]-methyl}-piperidin-1-yl)-propenone]	slightly hygroscopic	Slightly hygroscopic	≤ 2	≤ 3	~3															
C=CC(=O)N1CCC(CNc2ncnc(N)c2-c2ccc(Oc3ccccc3)cc2)CC1 [form NF5, 1-(4-{[6-Amino-5-(4-phenoxy-phenyl)-pyrimidin-4-ylamino]-methyl}-piperidin-1-yl)-propenone]	slightly hygroscopic				~1.5	Slightly hygroscopic	≤ 2	≤ 1												
C=CC(=O)N1CCC(CNc2ncnc(N)c2-c2ccc(Oc3ccccc3)cc2)CC1 [form A1, 1-(4-{[6-Amino-5-(4-phenoxy-phenyl)-pyrimidin-4-ylamino]-methyl}-piperidin-1-yl)-propenone]	slightly hygroscopic		≤ 1	≤ 2					approx. 21 μg/mL	21	approx. 14 μg/mL	14	25	33	approx. 36 μg/mL	36	190	205	approx. 214 μg/mL	214
